One data set deals with Lettuce. The following applies: LT, 4000 ppm, 2-3 weeks.
The test system of another data set is Sugar beet. The following applies: SB, 4000 ppm, 2-3 weeks.
The test system of another data set is Rice. As to the kind of experiment: Intermediate Retardant Test, rice. Type of data set: in vivo, Rice (Ishikari). The following applies: Oryza sativa, 672 h, ~28 days, read-out: Percentage Reduction in Height of Rice (Compared to formulation blank). The essentials: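 Overall spray at 1000 ppm and 4000 ppm (1 and 4 kg ha^-1, 1000 l/ha), giving foliar plus root exposure; rice in flooded paddy pots, barley and apples in 4" pots. Height measured ~28 days after treatment (ligule for cereals, apex for apples), reported as % reduction versus formulation blank.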

A further data set has as its system Vines. The following applies: VN, 4000 ppm, 2-3 weeks.
Another data set concerns Radish. As to conditions: RA, 4000 ppm, 2-3 weeks.
The test system of data set [1] is plants (broad species spectrum). As to the kind of experiment: Overall plant growth regulating effects in the Examples. The following applies: 1000 ppm rate. Type of data set: in vivo.
The next data set is described as follows: Half life in soil. Type of data set: physicochemical.
A further data set deals with Maize. As to conditions: MZ, 4000 ppm, 2-3 weeks.
The next data set can be described thus: Solubility in water. Type of data set: physicochemical.

In brackets after ≈: the same amount, converted by molar mass. Read-outs that look alike come from different tables or passages of the source.

Description for Maize: (§1) The compounds were tested for plant growth regulator activity against up to tweleve plant species for various growth effects relevant to plant growth regulation.
(§2) Each chemical was applied at 4000 ppm (4 kg/ha in a 1000 l/ha field volume) using a tracksprayer and a SS8004E (Teejet) nozzle.
(§3) After spray, the plants were grown in a glasshouse with 25° C. day/22° C. night temperatures and supplementary lighting was supplied when necessary (from mercury vapour lamps), to provide a 16 hour photoperiod. The exception to this were the temperate cereals, wheat and barley, which were grown in 16° C. day 13° C. night temperatures
(§4) After 2-3 weeks in the glasshouse, depending on the time of year, the plants were visually assessed for morphological characteristics. Formulations blanks were used as controls to assess the Plants.
Description for Radish: as §1, §2, §3, §4
Description for Sugar beet: as §1, §2, §3, §4
Description for Vines: as §1, §2, §3, §4

Consider `CC(C)CC#CC(O)(Cn1cncn1)C(C)(C)C` (centres unmarked) [Compound 7, 2,2-dimethyl-3-hydroxy-3-(4-methyl-pent-1-yne-1-yl)-4-(1,2,4-triazol-1-yl)-butane], for which the “Retardation score (1-3) with greening (G), apical damage (A), tillering/side shooting (T)” value in the data set on Lettuce and with Sugar beet was 1G in each case. Moreover, the Percent reduction in rice plant height vs formulation blank at 1000 ppm in the data set on Rice (Table VII) was 11.1%; in the data set with Rice (side-by-side, Table XVI), 27%. For the same compound, the Percent reduction in rice plant height vs formulation blank at 4000 ppm was 26% in the data set on Rice (Table VII) and 53% in the data set with Rice (side-by-side, Table XVI).
By half-life is commonly meant the time needed for the level to fall by half in the phase considered. For orientation: solubility means the concentration that dissolves in the medium under given conditions. Low values mean little dissolved substance, high ones much dissolved substance. On to `CCCCC#CC(O)(Cn1cncn1)C(C)(C)C` (centres unmarked) [Compound 1, 2,2-dimethyl-3-hydroxy-3-(hex-1-yne-1-yl)-4-(1,2,4-triazol-1-yl)-butane], for which the “Retardation score (1-3) with greening (G), apical damage (A), tillering/side shooting (T)” value came out at 1GT in the data set on Vines, 2G in the data set with Radish, 1G with Sugar beet and 2GA in the data set with Maize. In addition, the “retardant activity on barley and rice versus apples” value in data set [1] was “considerably more active as a cereal retardant on barley and rice than as a woody species retardant on apples”. The compound further registered a half-life in “Half life in soil” of 7 to 14 days. Further, the Percent reduction in rice plant height vs formulation blank at 1000 ppm with Rice (Table VII) turned out to be 24.6%; with Rice (side-by-side, Table XVI), 31%. Further, the Percent reduction in rice plant height vs formulation blank at 4000 ppm with Rice (Table VII) amounted to 49.9%; in the data set with Rice (side-by-side, Table XVI) it was 53%. Moreover, the concentration in solution in the data set “Solubility in water” (solubility) came to 1.9 mg/mL (≈ 7.62 mM).
